Source: ChEMBL document CHEMBL1201861, “Genomics of Drug Sensitity in Cancer screening data, Wellcome Trust Sanger Institute”

Tests used:
Assay in all cases: cells
DSH1 = type: functional, cell-based; conditions: Homo sapiens;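 further: growth inhibition of human DSH1 cells, measured with a cell viability readout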
Description: SANGER: Inhibition of human DSH1 cell growth in a cell viability assay.

ES1 = type: functional, cell-based, Homo sapiens; conditions: Homo sapiens, ES1
Description: SANGER: Inhibition of human ES1 cell growth in a cell viability assay.

ES3 = type: functional, cell-based, Homo sapiens; conditions: Homo sapiens, ES3;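 further: growth inhibition of ES3 cells, read out with a cell viability assay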
Description: SANGER: Inhibition of human ES3 cell growth in a cell viability assay.

EW-18 = type: functional, cell-based, Homo sapiens; conditions: Homo sapiens, EW-18; read-out: IC50;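 further: growth inhibition of EW-18 cells, read out by a cell viability assay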
Description: SANGER: Inhibition of human EW-18 cell growth in a cell viability assay.

EOL1 = type: functional, cell-based, Homo sapiens; conditions: Homo sapiens, EOL1;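 further: growth inhibition of EoL-1 cells, read out by a cell viability assay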
Description: SANGER: Inhibition of human EoL-1-cell cell growth in a cell viability assay.

GI-1 = type: functional, cell-based, Homo sapiens; conditions: Homo sapiens, GI-1;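 further: growth inhibition of human GI-1 cells, measured with a cell viability readout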
Description: SANGER: Inhibition of human GI-1 cell growth in a cell viability assay.

HAL-01 = type: functional, cell-based, Homo sapiens; conditions: Homo sapiens, HAL-01;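 further: growth inhibition of human HAL-01 cells, read out with a cell viability assay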
Description: SANGER: Inhibition of human HAL-01 cell growth in a cell viability assay.

HD-MY-Z = type: functional, cell-based, Homo sapiens; conditions: Homo sapiens, HD-MY-Z;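 further: growth inhibition of HD-MY-Z cells, read out with a cell viability assay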
Description: SANGER: Inhibition of human HD-MY-Z cell growth in a cell viability assay.

IST-MES1 = type: functional, cell-based, Homo sapiens; conditions: Homo sapiens, IST-MES1;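 further: growth inhibition of IST-MES1 cells, measured with a cell viability assay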
Description: SANGER: Inhibition of human IST-MES1 cell growth in a cell viability assay.

JAR = type: functional, cell-based, Homo sapiens; conditions: Homo sapiens, JAR;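 further: growth inhibition of human JAR cells determined with a cell viability assay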
Description: SANGER: Inhibition of human JAR cell growth in a cell viability assay.

KE-37 = type: functional, cell-based, Homo sapiens; conditions: Homo sapiens, KE-37;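 further: growth inhibition of KE-37 cells, read out with a cell viability assay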
Description: SANGER: Inhibition of human KE-37 cell growth in a cell viability assay.

KG-1 = type: functional, cell-based, Homo sapiens; conditions: Homo sapiens, KG-1;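 further: growth inhibition of KG-1 cells, read out by a cell viability assay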
Description: SANGER: Inhibition of human KG-1 cell growth in a cell viability assay.

KM12 = type: functional, cell-based, Homo sapiens; conditions: Homo sapiens, KM12;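 further: KM12 cell growth inhibition, read out with a cell viability assay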
Description: SANGER: Inhibition of human KM12 cell growth in a cell viability assay.

L-363 = type: functional, cell-based, Homo sapiens; conditions: Homo sapiens, L-363
Description: SANGER: Inhibition of human L-363 cell growth in a cell viability assay.

LAMA-84 = type: functional, cell-based, Homo sapiens; conditions: Homo sapiens, LAMA-84;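 further: growth inhibition of LAMA-84 cells, read out with a cell viability assay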
Description: SANGER: Inhibition of human LAMA-84 cell growth in a cell viability assay.

LOX IMVI = type: functional, cell-based, Homo sapiens; conditions: Homo sapiens, LOX IMVI
Description: SANGER: Inhibition of human LOXIMVI cell growth in a cell viability assay.

LS-513 = type: functional, cell-based, Homo sapiens; conditions: Homo sapiens, LS-513
Description: SANGER: Inhibition of human LS-513 cell growth in a cell viability assay.

Lu-65 = type: functional, cell-based, Homo sapiens; conditions: Homo sapiens, Lu-65;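 further: growth inhibition of Lu-65 cancer cells, read out by a cell viability assay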
Description: SANGER: Inhibition of human LU-65 cell growth in a cell viability assay.

MFM-223 = type: functional, cell-based, Homo sapiens; conditions: Homo sapiens, MFM-223
Description: SANGER: Inhibition of human MFM-223 cell growth in a cell viability assay.

MLMA = type: functional, cell-based, Homo sapiens; conditions: Homo sapiens, MLMA;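 further: growth inhibition of MLMA cells (human), determined through a cell viability readout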
Description: SANGER: Inhibition of human MLMA cell growth in a cell viability assay.

MOLT-4 = type: functional, cell-based, Homo sapiens; conditions: Homo sapiens, MOLT-4;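 further: growth inhibition of MOLT-4 cells, determined with a cell viability readout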
Description: SANGER: Inhibition of human MOLT-4 cell growth in a cell viability assay.

MPP-89 = type: functional, cell-based, Homo sapiens; conditions: Homo sapiens, MPP-89;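 further: growth inhibition of human MPP-89 cells, read out with a cell viability assay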
Description: SANGER: Inhibition of human MPP-89 cell growth in a cell viability assay.

MZ7-mel = type: functional, cell-based, Homo sapiens; conditions: Homo sapiens, MZ7-mel;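 further: growth inhibition of human MZ7-mel cells, measured by a cell viability assay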
Description: SANGER: Inhibition of human MZ7-mel cell growth in a cell viability assay.

NB13 = type: functional, cell-based, Homo sapiens; conditions: Homo sapiens, NB13;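 further: cell viability readout measuring growth inhibition of human NB13 cells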
Description: SANGER: Inhibition of human NB13 cell growth in a cell viability assay.

NCI-H1838 = type: functional, cell-based, Homo sapiens; conditions: Homo sapiens, NCI-H1838;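 further: growth inhibition of NCI-H1838 cells, determined with a cell viability readout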
Description: SANGER: Inhibition of human NCI-H1838 cell growth in a cell viability assay.

NCI-H226 = type: functional, cell-based, Homo sapiens; conditions: Homo sapiens, NCI-H226;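 further: cell viability read-out used to gauge growth inhibition of the cells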
Description: SANGER: Inhibition of human NCI-H226 cell growth in a cell viability assay.

NCI-H23 = type: functional, cell-based, Homo sapiens; conditions: Homo sapiens, NCI-H23;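 further: cell viability assay measuring growth inhibition of NCI-H23 cells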
Description: SANGER: Inhibition of human NCI-H23 cell growth in a cell viability assay.

NH-12 = type: functional, cell-based, Homo sapiens; conditions: Homo sapiens, NH-12;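 further: growth inhibition of NH-12 cells, read out with a cell viability assay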
Description: SANGER: Inhibition of human NH-12 cell growth in a cell viability assay.

QIMR-WIL = type: functional, cell-based, Homo sapiens; conditions: Homo sapiens, QIMR-WIL;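 further: growth inhibition of QIMR-WIL cells, read out with a cell viability assay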
Description: SANGER: Inhibition of human QIMR-WIL cell growth in a cell viability assay.

RH-1 = type: functional, cell-based, Homo sapiens; conditions: Homo sapiens, RH-1;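 further: growth inhibition of human RH-1 cells, read out with a cell viability assay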
Description: SANGER: Inhibition of human RH-1 cell growth in a cell viability assay.

SF-126 = type: functional, cell-based, Homo sapiens; conditions: Homo sapiens, SF-126;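 further: growth inhibition of human SF126 cells, read out with a cell viability assay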
Description: SANGER: Inhibition of human SF126 cell growth in a cell viability assay.

SHP77 = type: functional, cell-based, Homo sapiens, SHP-77; conditions: Homo sapiens, SHP77;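 further: growth inhibition of human SHP-77 cells measured by a cell viability assay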
Description: SANGER: Inhibition of human SHP-77 cell growth in a cell viability assay.

SJSA-1 = type: functional, cell-based, Homo sapiens; conditions: Homo sapiens, SJSA-1;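 further: growth inhibition of human SJSA-1 cells, read out through a cell viability measurement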
Description: SANGER: Inhibition of human SJSA-1 cell growth in a cell viability assay.

SK-LMS-1 = type: functional, cell-based, Homo sapiens; conditions: Homo sapiens, SK-LMS-1;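 further: growth inhibition of human SK-LMS-1 cells, read out with a cell viability assay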
Description: SANGER: Inhibition of human SK-LMS-1 cell growth in a cell viability assay.

SK-N-DZ = type: functional, cell-based, Homo sapiens; conditions: Homo sapiens, SK-N-DZ; read-out: IC50;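 further: growth inhibition of the cancer cell line, read out through a viability assay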
Description: SANGER: Inhibition of human SK-N-DZ cell growth in a cell viability assay.

SK-PN-DW = type: functional, cell-based, Homo sapiens; conditions: Homo sapiens, SK-PN-DW;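 further: growth inhibition measured with a viability assay on these cells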
Description: SANGER: Inhibition of human SK-PN-DW cell growth in a cell viability assay.

SW684 = type: functional, cell-based, Homo sapiens; conditions: Homo sapiens, SW684; read-out: IC50;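 further: growth inhibition of human SW684 cells, measured by a cell viability assay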
Description: SANGER: Inhibition of human SW684 cell growth in a cell viability assay.

SW 962 = type: functional, cell-based, Homo sapiens; conditions: Homo sapiens, SW 962;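 further: growth inhibition of human SW962 cells, read out by a cell viability assay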
Description: SANGER: Inhibition of human SW962 cell growth in a cell viability assay.

TE-1 = type: functional, cell-based, Homo sapiens; conditions: Homo sapiens, TE-1;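 further: growth inhibition of the human TE-1 cell line, read out with a cell viability assay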
Description: SANGER: Inhibition of human TE-1 cell growth in a cell viability assay.

A101D = type: functional, cell-based, Homo sapiens; conditions: Homo sapiens, A101D;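 further: growth inhibition of the cell line, measured with a viability assay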
Description: SANGER: Inhibition of human A101D cell growth in a cell viability assay.

A253 cell line = type: functional, cell-based, Homo sapiens; conditions: Homo sapiens, A253;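 further: growth inhibition of A253 cells, read out with a cell viability assay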
Description: SANGER: Inhibition of human A253 cell growth in a cell viability assay.

ACN = type: functional, cell-based, Homo sapiens; conditions: Homo sapiens, ACN;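 further: growth inhibition of the human ACN cell line, read out via cell viability testing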
Description: SANGER: Inhibition of human ACN cell growth in a cell viability assay.

AM-38 = type: functional, cell-based, Homo sapiens; conditions: Homo sapiens, AM-38;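 further: growth inhibition of AM-38 cells of human origin, read out by a cell viability assay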
Description: SANGER: Inhibition of human AM-38 cell growth in a cell viability assay.

BE-13 = type: functional, cell-based, Homo sapiens; conditions: Homo sapiens, BE-13;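 further: growth inhibition of human BE-13 cells, measured with a cell viability assay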
Description: SANGER: Inhibition of human BE-13 cell growth in a cell viability assay.

BV-173 = type: functional, cell-based, Homo sapiens; conditions: Homo sapiens, BV-173
Description: SANGER: Inhibition of human BV-173 cell growth in a cell viability assay.

C2BBe1 = type: functional, cell-based, Homo sapiens; conditions: Homo sapiens, C2BBe1;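 further: growth inhibition of C2BBe1 cells, read out through a viability assay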
Description: SANGER: Inhibition of human C2BBe1 cell growth in a cell viability assay.

TE-5 = type: functional, cell-based, Homo sapiens; conditions: Homo sapiens, TE-5;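 further: inhibition of cell growth, read out by a cell viability assay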
Description: SANGER: Inhibition of human TE-5 cell growth in a cell viability assay.

CCRF-CEM = type: functional, cell-based, Homo sapiens; conditions: Homo sapiens, CCRF-CEM;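 further: inhibition of CCRF-CEM cell growth, measured by a cell viability assay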
Description: SANGER: Inhibition of human CCRF-CEM cell growth in a cell viability assay.

IA-LM = type: functional, cell-based; conditions: Homo sapiens;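 further: cell viability assay measuring growth inhibition of human IA-LM cells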
Description: SANGER: Inhibition of human IA-LM cell growth in a cell viability assay.

KLE = type: functional, cell-based; conditions: Homo sapiens;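 further: growth inhibition of human KLE cells, read out with a cell viability assay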
Description: SANGER: Inhibition of human KLE cell growth in a cell viability assay.

Nc1ccccc1NC(=O)c1ccc(CNC(=O)OCc2cccnc2)cc1 [ENTINOSTAT]
IC50 (DSH1): 287 nM
IC50 (ES1): 113 nM
IC50 (ES3): > 5000 nM
IC50 (EW-18): > 5000 nM
IC50 (EOL1): > 5000 nM
IC50 (GI-1): 2930 nM
IC50 (HAL-01): 1170 nM
IC50 (HD-MY-Z): 1750 nM
IC50 (IST-MES1): 3180 nM
IC50 (JAR): 878 nM
IC50 (KE-37): 643 nM
IC50 (KG-1): 1620 nM
IC50 (KM12): 1650 nM
IC50 (L-363): 567 nM
IC50 (LAMA-84): 776 nM
IC50 (LOX IMVI): 1930 nM
IC50 (LS-513): 445 nM
IC50 (Lu-65): 4150 nM
IC50 (MFM-223): > 5000 nM
IC50 (MLMA): 1880 nM
IC50 (MOLT-4): 1030 nM
IC50 (MPP-89): 2330 nM
IC50 (MZ7-mel): 561 nM
IC50 (NB13): 668 nM
IC50 (NCI-H1838): > 5000 nM
IC50 (NCI-H226): > 5000 nM
IC50 (NCI-H23): > 5000 nM
IC50 (NH-12): > 5000 nM
IC50 (QIMR-WIL): 683 nM
IC50 (RH-1): > 5000 nM
IC50 (SF-126): 2330 nM
IC50 (SHP77): 4010 nM
IC50 (SJSA-1): 1520 nM
IC50 (SK-LMS-1): > 5000 nM
IC50 (SK-N-DZ): 1250 nM
IC50 (SK-PN-DW): 978 nM
IC50 (SW684): > 5000 nM
IC50 (SW 962): > 5000 nM
IC50 (TE-1): 553 nM
IC50 (A101D): 403 nM
IC50 (A253 cell line): > 5000 nM
IC50 (ACN): 510 nM
IC50 (AM-38): > 5000 nM
IC50 (BE-13): 497 nM
IC50 (BV-173): 371 nM
IC50 (C2BBe1): > 5000 nM
IC50 (TE-5): 3210 nM
IC50 (CCRF-CEM): 747 nM

CC(C)C[C@H](NC(=O)[C@H](Cc1ccccc1)NC(=O)c1cnccn1)B(O)O [BORTEZOMIB]
IC50 (DSH1): 0.48 nM
IC50 (ES1): 0.43 nM
IC50 (ES3): > 20 nM
IC50 (EW-18): 18 nM
IC50 (EOL1): 18.3 nM
IC50 (GI-1): 0.764 nM
IC50 (HAL-01): 1.18 nM
IC50 (HD-MY-Z): 3.93 nM
IC50 (IST-MES1): > 20 nM
IC50 (JAR): 16.1 nM
IC50 (KE-37): 2.13 nM
IC50 (KG-1): 7.94 nM
IC50 (KM12): 1.27 nM
IC50 (L-363): 7.7 nM
IC50 (LAMA-84): 3.49 nM
IC50 (LOX IMVI): 3.5 nM
IC50 (LS-513): 0.739 nM
IC50 (Lu-65): 5.84 nM
IC50 (MFM-223): 17.9 nM
IC50 (MLMA): 8.85 nM
IC50 (MOLT-4): 2.13 nM
IC50 (MPP-89): 1.89 nM
IC50 (MZ7-mel): 1.09 nM
IC50 (NB13): 2 nM
IC50 (NCI-H1838): > 20 nM
IC50 (NCI-H226): > 20 nM
IC50 (NCI-H23): 12.1 nM
IC50 (NH-12): > 20 nM
IC50 (QIMR-WIL): 0.889 nM
IC50 (RH-1): > 20 nM
IC50 (SF-126): 0.701 nM
IC50 (SHP77): > 20 nM
IC50 (SJSA-1): 2.21 nM
IC50 (SK-LMS-1): 0.854 nM
IC50 (SK-N-DZ): 3.26 nM
IC50 (SK-PN-DW): 3.14 nM
IC50 (SW684): 0.821 nM
IC50 (SW 962): 5.21 nM
IC50 (TE-1): 1.03 nM
IC50 (A101D): 0.225 nM
IC50 (A253 cell line): 0.208 nM
IC50 (ACN): 0.417 nM
IC50 (AM-38): > 20 nM
IC50 (BE-13): 1.93 nM
IC50 (BV-173): > 20 nM
IC50 (C2BBe1): 2.89 nM
IC50 (TE-5): 0.865 nM
IC50 (CCRF-CEM): 1.13 nM

CN(NC(=O)CC(=O)NN(C)C(=S)c1ccccc1)C(=S)c1ccccc1 [ELESCLOMOL]
IC50 (DSH1): 23.3 nM
IC50 (ES1): 0.749 nM
IC50 (ES3): 5.79 nM
IC50 (EW-18): > 200 nM
IC50 (EOL1): 62 nM
IC50 (GI-1): 8.26 nM
IC50 (HAL-01): 128 nM
IC50 (HD-MY-Z): 5.91 nM
IC50 (IA-LM): 84.4 nM
IC50 (IST-MES1): 54.1 nM
IC50 (JAR): 5.97 nM
IC50 (KE-37): > 200 nM
IC50 (KG-1): 39.7 nM
IC50 (KLE): > 200 nM
IC50 (KM12): > 200 nM
IC50 (L-363): 12.3 nM
IC50 (LAMA-84): 52.7 nM
IC50 (LOX IMVI): 171 nM
IC50 (LS-513): 82 nM
IC50 (Lu-65): > 200 nM
IC50 (MFM-223): 45.2 nM
IC50 (MLMA): 13.6 nM
IC50 (MOLT-4): 105 nM
IC50 (MPP-89): 9.13 nM
IC50 (MZ7-mel): 12.7 nM
IC50 (NB13): 23.1 nM
IC50 (NCI-H1838): 184 nM
IC50 (NCI-H226): 131 nM
IC50 (NCI-H23): 12.2 nM
IC50 (NH-12): 134 nM
IC50 (QIMR-WIL): 32.9 nM
IC50 (RH-1): 58.2 nM
IC50 (SF-126): 1.95 nM
IC50 (SHP77): > 200 nM
IC50 (SJSA-1): 12.3 nM
IC50 (SK-LMS-1): > 200 nM
IC50 (SK-N-DZ): 189 nM
IC50 (SK-PN-DW): 9.02 nM
IC50 (SW684): > 200 nM
IC50 (SW 962): 111 nM
IC50 (TE-1): 46 nM
IC50 (A101D): 11.4 nM
IC50 (ACN): 11.7 nM
IC50 (AM-38): 169 nM
IC50 (BE-13): > 200 nM
IC50 (BV-173): 5.39 nM
IC50 (C2BBe1): 103 nM
IC50 (TE-5): 15 nM
IC50 (CCRF-CEM): > 200 nM

COc1ccc(N(C(=O)Oc2c(C)cccc2C)c2ccnc(Nc3ccc(N4CCN(C)CC4)cc3)n2)c(OC)c1
IC50 (DSH1): > 5120 nM
IC50 (ES1): > 5120 nM
IC50 (ES3): > 5120 nM
IC50 (EW-18): > 5120 nM
IC50 (EOL1): < 20 nM
IC50 (GI-1): > 5120 nM
IC50 (HAL-01): > 5120 nM
IC50 (HD-MY-Z): > 5120 nM
IC50 (IA-LM): > 5120 nM
IC50 (IST-MES1): 357 nM
IC50 (JAR): > 5120 nM
IC50 (KE-37): > 5120 nM
IC50 (KLE): 1860 nM
IC50 (KM12): > 5120 nM
IC50 (L-363): > 5120 nM
IC50 (LAMA-84): < 20 nM
IC50 (LOX IMVI): > 5120 nM
IC50 (LS-513): > 5120 nM
IC50 (Lu-65): > 5120 nM
IC50 (MFM-223): > 5120 nM
IC50 (MLMA): 1920 nM
IC50 (MOLT-4): > 5120 nM
IC50 (MPP-89): 82.3 nM
IC50 (MZ7-mel): 5090 nM
IC50 (NB13): > 5120 nM
IC50 (NCI-H1838): > 5120 nM
IC50 (NCI-H226): > 5120 nM
IC50 (NCI-H23): > 5120 nM
IC50 (NH-12): > 5120 nM
IC50 (QIMR-WIL): > 5120 nM
IC50 (RH-1): > 5120 nM
IC50 (SF-126): 1730 nM
IC50 (SHP77): > 5120 nM
IC50 (SJSA-1): > 5120 nM
IC50 (SK-LMS-1): > 5120 nM
IC50 (SK-N-DZ): > 5120 nM
IC50 (SK-PN-DW): > 5120 nM
IC50 (SW684): 326 nM
IC50 (SW 962): 1340 nM
IC50 (TE-1): > 5120 nM
IC50 (A101D): > 5120 nM
IC50 (A253 cell line): > 5120 nM
IC50 (ACN): 4230 nM
IC50 (AM-38): > 5120 nM
IC50 (BE-13): > 5120 nM
IC50 (BV-173): < 20 nM
IC50 (C2BBe1): > 5120 nM
IC50 (TE-5): > 5120 nM
IC50 (CCRF-CEM): > 5120 nM
